Source: ChEMBL document CHEMBL3352227, “Synthesis, antimycobacterial and antibacterial evaluation of l-[(1R, 2S)-2-fluorocyclopropyl]fluoroquinolone derivatives containing an oxime functional moiety” (Eur J Med Chem, 2014)
Converted amounts (≈) assume the structure as drawn.

Assays:
Type in all cases: functional
[1] = tested on: Klebsiella pneumoniae; experiment: Antibacterial activity against extended-spectrum beta-lactamase producin Klebsiella pneumoniae 12-7 after 18 to 24 hrs by standard twofold serial dilution method
[2] = tested on: Staphylococcus epidermidis; experiment: Antibacterial activity against methicillin-sensitive Staphylococcus epidermidis 12-8 after 18 to 24 hrs by standard twofold serial dilution method
[3] = tested on: Pseudomonas aeruginosa; experiment: Antibacterial activity against Pseudomonas aeruginosa 12-14 after 18 to 24 hrs by standard twofold serial dilution method
[4] = tested on: Staphylococcus epidermidis; experiment: Antibacterial activity against methicillin-resistant Staphylococcus epidermidis 12-1 after 18 to 24 hrs by standard twofold serial dilution method
[5] = tested on: Klebsiella pneumoniae; experiment: Antibacterial activity against extended-spectrum beta-lactamase producin Klebsiella pneumoniae 12-14 after 18 to 24 hrs by standard twofold serial dilution method
[6] = tested on: Pseudomonas aeruginosa; experiment: Antibacterial activity against Pseudomonas aeruginosa 12-12 after 18 to 24 hrs by standard twofold serial dilution method
[7] = tested on: Staphylococcus epidermidis; experiment: Antibacterial activity against methicillin-sensitive Staphylococcus epidermidis 12-3 after 18 to 24 hrs by standard twofold serial dilution method
[8] = tested on: Staphylococcus aureus; experiment: Antibacterial activity against methicillin-sensitive Staphylococcus aureus 12-5 after 18 to 24 hrs by standard twofold serial dilution method
[9] = tested on: Mycobacterium tuberculosis; experiment: Antimycobacterial activity against Mycobacterium tuberculosis H37Rv ATCC 27294 by MABA method
[10] = tested on: Staphylococcus aureus; experiment: Antibacterial activity against methicillin-sensitive Staphylococcus aureus 12-1 after 18 to 24 hrs by standard twofold serial dilution method
[11] = tested on: Staphylococcus aureus; experiment: Antibacterial activity against methicillin-resistant Staphylococcus aureus 12-5 after 18 to 24 hrs by standard twofold serial dilution method
[12] = tested on: Staphylococcus aureus; experiment: Antibacterial activity against methicillin-resistant Staphylococcus aureus 12-2 after 18 to 24 hrs by standard twofold serial dilution method
[13] = tested on: Escherichia coli; experiment: Antibacterial activity against extended-spectrum beta-lactamase producing Escherichia coli 12-15 after 18 to 24 hrs by standard twofold serial dilution method
[14] = tested on: Staphylococcus aureus; experiment: Antibacterial activity against methicillin-sensitive Staphylococcus aureus 12-4 after 18 to 24 hrs by standard twofold serial dilution method
[15] = tested on: Escherichia coli; experiment: Antibacterial activity against extended-spectrum beta-lactamase producing Escherichia coli 12-3 after 18 to 24 hrs by standard twofold serial dilution method
[16] = tested on: Klebsiella pneumoniae; experiment: Antibacterial activity against Klebsiella pneumoniae 12-1 after 18 to 24 hrs by standard twofold serial dilution method
[17] = tested on: Staphylococcus epidermidis; experiment: Antibacterial activity against methicillin-resistant Staphylococcus epidermidis 12-6 after 18 to 24 hrs by standard twofold serial dilution method
[18] = tested on: Klebsiella pneumoniae; experiment: Antibacterial activity against Klebsiella pneumoniae 12-4 after 18 to 24 hrs by standard twofold serial dilution method
[19] = tested on: Klebsiella pneumoniae; experiment: Antibacterial activity against extended-spectrum beta-lactamase producin Klebsiella pneumoniae 12-3 after 18 to 24 hrs by standard twofold serial dilution method
[20] = tested on: Staphylococcus aureus; experiment: Antibacterial activity against methicillin-resistant Staphylococcus aureus 12-4 after 18 to 24 hrs by standard twofold serial dilution method
[21] = tested on: Staphylococcus aureus; experiment: Antibacterial activity against methicillin-sensitive Staphylococcus aureus 12-2 after 18 to 24 hrs by standard twofold serial dilution method
[22] = tested on: Staphylococcus aureus; experiment: Antibacterial activity against Staphylococcus aureus ATCC 25923 after 18 to 24 hrs by standard twofold serial dilution method
[23] = tested on: Escherichia coli; experiment: Antibacterial activity against Escherichia coli 12-1 after 18 to 24 hrs by standard twofold serial dilution method
[24] = tested on: Escherichia coli; experiment: Antibacterial activity against extended-spectrum beta-lactamase producing Escherichia coli 12-14 after 18 to 24 hrs by standard twofold serial dilution method
[25] = tested on: Escherichia coli; experiment: Antibacterial activity against Escherichia coli ATCC 25922 after 18 to 24 hrs by standard twofold serial dilution method
[26] = tested on: Streptococcus pneumoniae; experiment: Antibacterial activity against Streptococcus pneumoniae ATCC 49619 after 18 to 24 hrs by standard twofold serial dilution method
[27] = tested on: Staphylococcus epidermidis; experiment: Antibacterial activity against methicillin-sensitive Staphylococcus epidermidis 12-1 after 18 to 24 hrs by standard twofold serial dilution method
[28] = tested on: Staphylococcus epidermidis; experiment: Antibacterial activity against methicillin-sensitive Staphylococcus epidermidis 12-6 after 18 to 24 hrs by standard twofold serial dilution method
[29] = tested on: Klebsiella pneumoniae; experiment: Antibacterial activity against extended-spectrum beta-lactamase producin Klebsiella pneumoniae 12-4 after 18 to 24 hrs by standard twofold serial dilution method
[30] = tested on: Streptococcus pneumoniae; experiment: Antibacterial activity against Streptococcus pneumoniae 12-18 after 18 to 24 hrs by standard twofold serial dilution method
[31] = tested on: Klebsiella pneumoniae; experiment: Antibacterial activity against Klebsiella pneumoniae 12-2 after 18 to 24 hrs by standard twofold serial dilution method
[32] = tested on: Escherichia coli; experiment: Antibacterial activity against extended-spectrum beta-lactamase producing Escherichia coli 12-2 after 18 to 24 hrs by standard twofold serial dilution method

SMILES	MIC [1]	MIC [2]	MIC [3]	MIC [4]	MIC [5]	MIC [6]	MIC [7]	MIC [8]	MIC [9]	MIC [10]	MIC [11]	MIC [12]	MIC [13]	MIC [14]	MIC [15]	MIC [16]	MIC [17]	MIC [18]	MIC [19]	MIC [20]	other results
CCO/N=C1/CN(c2nc3c(cc2F)c(=O)c(C(=O)O)cn3[C@@H]2C[C@@H]2F)[C@H]1CN	4 µg/mL (≈ 9.82 µM)	16 µg/mL (≈ 39.3 µM)	32 µg/mL (≈ 78.6 µM)	16 µg/mL (≈ 39.3 µM)	64 µg/mL (≈ 157 µM)	1 µg/mL (≈ 2.45 µM)	1 µg/mL (≈ 2.45 µM)	0.5 µg/mL (≈ 1.23 µM)	1 µg/mL (≈ 2.45 µM)	0.5 µg/mL (≈ 1.23 µM)	64 µg/mL (≈ 157 µM)	64 µg/mL (≈ 157 µM)	> 128 µg/mL	0.25 µg/mL (≈ 0.614 µM)	16 µg/mL (≈ 39.3 µM)	0.5 µg/mL (≈ 1.23 µM)	16 µg/mL (≈ 39.3 µM)	0.25 µg/mL (≈ 0.614 µM)	128 µg/mL (≈ 314 µM)	64 µg/mL (≈ 157 µM)	MIC [21]: 0.25 µg/mL (≈ 0.614 µM); MIC [22]: 0.5 µg/mL (≈ 1.23 µM); MIC [23]: 2 µg/mL (≈ 4.91 µM); MIC [24]: 128 µg/mL (≈ 314 µM); MIC [25]: 0.125 µg/mL (≈ 0.307 µM); MIC [26]: 0.5 µg/mL (≈ 1.23 µM); MIC [27]: 0.5 µg/mL (≈ 1.23 µM); MIC [28]: 0.25 µg/mL (≈ 0.614 µM); MIC [29]: 8 µg/mL (≈ 19.6 µM); MIC [30]: 4 µg/mL (≈ 9.82 µM); MIC [31]: 0.5 µg/mL (≈ 1.23 µM); MIC [32]: > 128 µg/mL
NC[C@H]1/C(=N\OCc2ccccc2)CN1c1nc2c(cc1F)c(=O)c(C(=O)O)cn2[C@@H]1C[C@@H]1F	4 µg/mL (≈ 8.52 µM)	8 µg/mL (≈ 17 µM)	64 µg/mL (≈ 136 µM)	16 µg/mL (≈ 34.1 µM)	> 128 µg/mL	4 µg/mL (≈ 8.52 µM)	0.5 µg/mL (≈ 1.07 µM)	0.25 µg/mL (≈ 0.533 µM)	2 µg/mL (≈ 4.26 µM)	0.25 µg/mL (≈ 0.533 µM)	32 µg/mL (≈ 68.2 µM)	64 µg/mL (≈ 136 µM)	> 128 µg/mL	0.125 µg/mL (≈ 0.266 µM)	32 µg/mL (≈ 68.2 µM)	0.5 µg/mL (≈ 1.07 µM)	8 µg/mL (≈ 17 µM)	1 µg/mL (≈ 2.13 µM)	> 128 µg/mL	32 µg/mL (≈ 68.2 µM)	MIC [21]: 0.25 µg/mL (≈ 0.533 µM); MIC [22]: 0.125 µg/mL (≈ 0.266 µM); MIC [23]: 0.25 µg/mL (≈ 0.533 µM); MIC [24]: > 128 µg/mL; MIC [25]: 0.125 µg/mL (≈ 0.266 µM); MIC [26]: 0.5 µg/mL (≈ 1.07 µM); MIC [27]: 0.25 µg/mL (≈ 0.533 µM); MIC [28]: 0.25 µg/mL (≈ 0.533 µM); MIC [29]: 16 µg/mL (≈ 34.1 µM); MIC [30]: 4 µg/mL (≈ 8.52 µM); MIC [31]: 1 µg/mL (≈ 2.13 µM); MIC [32]: > 128 µg/mL
CO/N=C1/CN(c2nc3c(cc2F)c(=O)c(C(=O)O)cn3[C@@H]2C[C@@H]2F)[C@@H]1CN	4 µg/mL (≈ 10.2 µM)	32 µg/mL (≈ 81.4 µM)	128 µg/mL (≈ 325 µM)	64 µg/mL (≈ 163 µM)	128 µg/mL (≈ 325 µM)	2 µg/mL (≈ 5.08 µM)	0.5 µg/mL (≈ 1.27 µM)	0.5 µg/mL (≈ 1.27 µM)	4 µg/mL (≈ 10.2 µM)	1 µg/mL (≈ 2.54 µM)	> 128 µg/mL	> 128 µg/mL	> 128 µg/mL	0.5 µg/mL (≈ 1.27 µM)	16 µg/mL (≈ 40.7 µM)	1 µg/mL (≈ 2.54 µM)	64 µg/mL (≈ 163 µM)	0.5 µg/mL (≈ 1.27 µM)	> 128 µg/mL	> 128 µg/mL	MIC [21]: 0.5 µg/mL (≈ 1.27 µM); MIC [22]: 0.25 µg/mL (≈ 0.636 µM); MIC [23]: 2 µg/mL (≈ 5.08 µM); MIC [24]: > 128 µg/mL; MIC [25]: 0.25 µg/mL (≈ 0.636 µM); MIC [26]: 1 µg/mL (≈ 2.54 µM); MIC [27]: 0.5 µg/mL (≈ 1.27 µM); MIC [28]: 0.5 µg/mL (≈ 1.27 µM); MIC [29]: 16 µg/mL (≈ 40.7 µM); MIC [30]: 4 µg/mL (≈ 10.2 µM); MIC [31]: 0.5 µg/mL (≈ 1.27 µM); MIC [32]: > 128 µg/mL
CCO/N=C1/CN(c2nc3c(cc2F)c(=O)c(C(=O)O)cn3[C@@H]2C[C@@H]2F)[C@@H]1CN	8 µg/mL (≈ 19.6 µM)	32 µg/mL (≈ 78.6 µM)	128 µg/mL (≈ 314 µM)	64 µg/mL (≈ 157 µM)	> 128 µg/mL	4 µg/mL (≈ 9.82 µM)	2 µg/mL (≈ 4.91 µM)	0.5 µg/mL (≈ 1.23 µM)	4 µg/mL (≈ 9.82 µM)	0.5 µg/mL (≈ 1.23 µM)	> 128 µg/mL	> 128 µg/mL	> 128 µg/mL	0.25 µg/mL (≈ 0.614 µM)	32 µg/mL (≈ 78.6 µM)	1 µg/mL (≈ 2.45 µM)	32 µg/mL (≈ 78.6 µM)	1 µg/mL (≈ 2.45 µM)	> 128 µg/mL	> 128 µg/mL	MIC [21]: 0.5 µg/mL (≈ 1.23 µM); MIC [22]: 0.25 µg/mL (≈ 0.614 µM); MIC [23]: 2 µg/mL (≈ 4.91 µM); MIC [24]: > 128 µg/mL; MIC [25]: 0.5 µg/mL (≈ 1.23 µM); MIC [26]: 2 µg/mL (≈ 4.91 µM); MIC [27]: 0.5 µg/mL (≈ 1.23 µM); MIC [28]: 0.5 µg/mL (≈ 1.23 µM); MIC [29]: 32 µg/mL (≈ 78.6 µM); MIC [30]: 8 µg/mL (≈ 19.6 µM); MIC [31]: 1 µg/mL (≈ 2.45 µM); MIC [32]: > 128 µg/mL
NC[C@@H]1/C(=N\OCc2ccccc2)CN1c1nc2c(cc1F)c(=O)c(C(=O)O)cn2[C@@H]1C[C@@H]1F	8 µg/mL (≈ 17 µM)	32 µg/mL (≈ 68.2 µM)	128 µg/mL (≈ 273 µM)	32 µg/mL (≈ 68.2 µM)	128 µg/mL (≈ 273 µM)	8 µg/mL (≈ 17 µM)	1 µg/mL (≈ 2.13 µM)	0.25 µg/mL (≈ 0.533 µM)	2 µg/mL (≈ 4.26 µM)	0.5 µg/mL (≈ 1.07 µM)	128 µg/mL (≈ 273 µM)	128 µg/mL (≈ 273 µM)	> 128 µg/mL	0.25 µg/mL (≈ 0.533 µM)	16 µg/mL (≈ 34.1 µM)	1 µg/mL (≈ 2.13 µM)	32 µg/mL (≈ 68.2 µM)	1 µg/mL (≈ 2.13 µM)	> 128 µg/mL	128 µg/mL (≈ 273 µM)	MIC [21]: 0.25 µg/mL (≈ 0.533 µM); MIC [22]: 0.5 µg/mL (≈ 1.07 µM); MIC [23]: 4 µg/mL (≈ 8.52 µM); MIC [24]: > 128 µg/mL; MIC [25]: 0.5 µg/mL (≈ 1.07 µM); MIC [26]: 1 µg/mL (≈ 2.13 µM); MIC [27]: 0.5 µg/mL (≈ 1.07 µM); MIC [28]: 0.5 µg/mL (≈ 1.07 µM); MIC [29]: 32 µg/mL (≈ 68.2 µM); MIC [30]: 4 µg/mL (≈ 8.52 µM); MIC [31]: 1 µg/mL (≈ 2.13 µM); MIC [32]: > 128 µg/mL
